The values below come from US10492511B2, “Preparations” (Symrise AG, priority 2012, dated 2019).

Assay [1] can be described thus: Reduction in apatite solubility (ALR), lactic acid consumption at pH 5. As to conditions: 0.5 g hydroxyapatite in 300 ml water, 37° C., pH 5, 2 hours. How it is done: In order to determine the reduction in apatite stability, a blind test was first conducted. For this purpose, a reaction vessel with 300 ml of desalinated water was temperature-controlled to 37° C., and 0.5 g of hydroxyapatite powder (spec. surface area 60 m^2/g, Merck) was suspended therein. The pH value of the suspension was kept at a constant value of 5 by means of an automatic burette used to add lactic acid. The amount of 0.1 molar lactic acid consumed in order to stabilize the pH was registered with a recorder.
The reduction in apatite solubility (ALR in %) caused by the active ingredient was calculated as follows: ALR (%)=(Lu−Lb)*100/Lu (%)

Assay [2] can be described thus: Inhibition of crystal growth (KWI) of hydroxyapatite, KOH consumption at pH 7.4. The settings on record: 100 mg hydroxyapatite, pH 7.4, 2 hours. How it is done:
In order to determine inhibition of crystal growth (KWI in %) by hydroxyapatite, a blind test was also first conducted. For this purpose, a reaction vessel with 400 ml of a 0.0008 molar solution of KH2PO4 and 45 ml of a 0.012 molar solution of CaCl2 was prepared. This solution was adjusted to a pH of 7.4 by titration with a 0.05 molar solution of KOH. After a stable pH value had been maintained for at least 30 minutes, 100 mg of hydroxyapatite powder (spec. surface area 60 m^2/g, Merck) was added. The pH value of the suspension was kept at a constant value of 7.4 by means of an automatic burette which can be used to add 0.05 molar KOH solution. The amount of 0.05 molar KOH solution consumed in order to stabilize the pH was registered with a recorder. The consumption of KOH solution (Ku) registered after 2 hours was equivalent to the formation of hydroxyapatite (growth of crystals in the suspension).
Inhibition of crystal growth by the active ingredient was calculated as follows: KWI (%)=(Ku−Kb)*100/Ku (%)

[3] abbreviates: 30 mg active ingredient mixture.
Setting [4] is: 150 mg active ingredient mixture.

Each structure is given as a SMILES string.

Regarding `COC(=O)C(C)O` (centres unmarked) [Example V9, Methyl lactate], the entries for the “Apatite solubility [%]” value in assay [1] (setting [3]) and in assay [1] (setting [4]) were 5% and 12%, respectively. The figures for the “Crystal growth inhibition [%]” value in assay [2] (5 mg active ingredient) and in assay [2] (6 mg active ingredient) were 10% and 14%, respectively.

`CC1CCC(C(C)C)C2(C1)OCC(CO)O2` (centres unmarked) [Example V10, Menthone glyceryl acetal]: the “Apatite solubility [%]” value in assay [1] (setting [4]) stood at 13%. The “Crystal growth inhibition [%]” value in assay [2] (5 mg active ingredient) came out at 9%; in assay [2] (6 mg active ingredient), 17%.

For `Cc1ccc(C(C)C)c(OCC(=O)N(Cc2cccs2)c2cc[nH]n2)c1` [Example V11, 2-(2-isopropyl-5-methylphenoxy)-N-(1H-pyrazol-3-yl)-N-(thiophen-2-yl)-methylacetamide], the “Apatite solubility [%]” value in assay [1] (setting [3]) was found to be 5%; in assay [1] (setting [4]), 14%. In addition, the “Crystal growth inhibition [%]” value is recorded as 11% in assay [2] (5 mg active ingredient) and 16% in assay [2] (6 mg active ingredient).
